Data taken from article PMC3189276 (2011).

Molecular target: human cannabinoid receptor 2 (hCB2R) (Homo sapiens, UniProt P34972)
Assay type: binding

Chain of human cannabinoid receptor 2 (hCB2R) (P34972 whole entry): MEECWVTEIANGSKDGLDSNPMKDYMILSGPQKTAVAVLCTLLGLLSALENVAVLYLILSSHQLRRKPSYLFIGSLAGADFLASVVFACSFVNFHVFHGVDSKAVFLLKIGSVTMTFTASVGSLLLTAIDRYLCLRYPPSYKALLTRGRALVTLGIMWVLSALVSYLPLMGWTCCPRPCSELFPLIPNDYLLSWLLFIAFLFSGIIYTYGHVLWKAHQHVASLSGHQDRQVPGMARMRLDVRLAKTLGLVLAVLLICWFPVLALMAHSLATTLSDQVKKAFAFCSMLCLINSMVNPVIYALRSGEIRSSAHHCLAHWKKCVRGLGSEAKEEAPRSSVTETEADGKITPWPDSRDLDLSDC

## CC(C)(CCCCCCN=C=S)c1cc(O)c2c(c1)OC(C)(C)[C@H]1CC[C@@H](CO)C[C@@H]21 [AM-841]
  % (TMH6 covalently modified): ~ 75 % (TMH6 covalently modified)
